Measured values taken from US10457654B2 (GENENTECH, INC., priority 2017, dated 2019).
Structures can show the parent of a compound that is named as a salt.

How the values were obtained:
hNav1.7 [1] = biological target: T1, hNav1.7 (Homo sapiens (Human), UniProt Q15858); assay: Patch voltage clamp electrophysiology assay (EP), Syncropatch 384PE, CHO cells expressing Nav1.7; assay type: cell-based; conditions: holding potential -50 mV; […] compound incubation; read-out: EP_SP hNav1.7 (Ex. 243B) IC50
Protocol: Electrophysiological Assay (EP) (In Vitro Assay)
The following voltage clamp electrophysiology studies were performed on representative compounds using cells heterologously expressing Nav1.7 or Nav1.5 channels. cDNAs for Nav1.7 (NM_002977) and Nav1.5 (AC137587) were stably expressed in Chinese Hamstr Ovary (CHO) cells and CHL (Chinese Hamster Lung) cells respectively. […] Internal solution consists of (in mM): 110 […], 10 […], 20 EGTA, and 10 Hepes (pH adjusted to 7.2); and external solution contains (in mM): 60 NMDG, 80 NaCl, 4 KCl, 1 MgCl2, 2 CaCl2, 2 D-Glucose monohydrate, 10 Hepes (pH adjusted to 7.4 with NaOH).
The chip is moved into the measuring head and the instrument primes the chip with external and internal solutions. […] cells are added to the chip from a cell hotel, and a negative pressure of −50 mBar is applied to form a seal. Following treatment with seal enhancer solution and wash-off with external solution, negative pressure of −250 mbar is applied for 1 second to achieve the whole-cell configuration, followed by three washing steps in external solution. 20 μl of compounds is added to 40 μl in each well (1:3 dilution of compounds), and after mixing, 20 μl is removed so the volume is retained at 40 μl.
For voltage protocol, an holding potential of −50 mV is applied during the whole experiment. A depolarizing step is applied to −10 mV for 10 ms, followed by a hyperpolarization step to −150 mV for 20 ms to allow channel recovery from inactivation. A second depolarizing step is applied from −150 mV to −10 mV for 10 ms, where currents were measured to derive blocking effects of compounds. Inhibition is determined based on 7.5 min of compound incubation.
Target sequence in this assay (Q15858 other isoform, or with tags, fused parts or gaps): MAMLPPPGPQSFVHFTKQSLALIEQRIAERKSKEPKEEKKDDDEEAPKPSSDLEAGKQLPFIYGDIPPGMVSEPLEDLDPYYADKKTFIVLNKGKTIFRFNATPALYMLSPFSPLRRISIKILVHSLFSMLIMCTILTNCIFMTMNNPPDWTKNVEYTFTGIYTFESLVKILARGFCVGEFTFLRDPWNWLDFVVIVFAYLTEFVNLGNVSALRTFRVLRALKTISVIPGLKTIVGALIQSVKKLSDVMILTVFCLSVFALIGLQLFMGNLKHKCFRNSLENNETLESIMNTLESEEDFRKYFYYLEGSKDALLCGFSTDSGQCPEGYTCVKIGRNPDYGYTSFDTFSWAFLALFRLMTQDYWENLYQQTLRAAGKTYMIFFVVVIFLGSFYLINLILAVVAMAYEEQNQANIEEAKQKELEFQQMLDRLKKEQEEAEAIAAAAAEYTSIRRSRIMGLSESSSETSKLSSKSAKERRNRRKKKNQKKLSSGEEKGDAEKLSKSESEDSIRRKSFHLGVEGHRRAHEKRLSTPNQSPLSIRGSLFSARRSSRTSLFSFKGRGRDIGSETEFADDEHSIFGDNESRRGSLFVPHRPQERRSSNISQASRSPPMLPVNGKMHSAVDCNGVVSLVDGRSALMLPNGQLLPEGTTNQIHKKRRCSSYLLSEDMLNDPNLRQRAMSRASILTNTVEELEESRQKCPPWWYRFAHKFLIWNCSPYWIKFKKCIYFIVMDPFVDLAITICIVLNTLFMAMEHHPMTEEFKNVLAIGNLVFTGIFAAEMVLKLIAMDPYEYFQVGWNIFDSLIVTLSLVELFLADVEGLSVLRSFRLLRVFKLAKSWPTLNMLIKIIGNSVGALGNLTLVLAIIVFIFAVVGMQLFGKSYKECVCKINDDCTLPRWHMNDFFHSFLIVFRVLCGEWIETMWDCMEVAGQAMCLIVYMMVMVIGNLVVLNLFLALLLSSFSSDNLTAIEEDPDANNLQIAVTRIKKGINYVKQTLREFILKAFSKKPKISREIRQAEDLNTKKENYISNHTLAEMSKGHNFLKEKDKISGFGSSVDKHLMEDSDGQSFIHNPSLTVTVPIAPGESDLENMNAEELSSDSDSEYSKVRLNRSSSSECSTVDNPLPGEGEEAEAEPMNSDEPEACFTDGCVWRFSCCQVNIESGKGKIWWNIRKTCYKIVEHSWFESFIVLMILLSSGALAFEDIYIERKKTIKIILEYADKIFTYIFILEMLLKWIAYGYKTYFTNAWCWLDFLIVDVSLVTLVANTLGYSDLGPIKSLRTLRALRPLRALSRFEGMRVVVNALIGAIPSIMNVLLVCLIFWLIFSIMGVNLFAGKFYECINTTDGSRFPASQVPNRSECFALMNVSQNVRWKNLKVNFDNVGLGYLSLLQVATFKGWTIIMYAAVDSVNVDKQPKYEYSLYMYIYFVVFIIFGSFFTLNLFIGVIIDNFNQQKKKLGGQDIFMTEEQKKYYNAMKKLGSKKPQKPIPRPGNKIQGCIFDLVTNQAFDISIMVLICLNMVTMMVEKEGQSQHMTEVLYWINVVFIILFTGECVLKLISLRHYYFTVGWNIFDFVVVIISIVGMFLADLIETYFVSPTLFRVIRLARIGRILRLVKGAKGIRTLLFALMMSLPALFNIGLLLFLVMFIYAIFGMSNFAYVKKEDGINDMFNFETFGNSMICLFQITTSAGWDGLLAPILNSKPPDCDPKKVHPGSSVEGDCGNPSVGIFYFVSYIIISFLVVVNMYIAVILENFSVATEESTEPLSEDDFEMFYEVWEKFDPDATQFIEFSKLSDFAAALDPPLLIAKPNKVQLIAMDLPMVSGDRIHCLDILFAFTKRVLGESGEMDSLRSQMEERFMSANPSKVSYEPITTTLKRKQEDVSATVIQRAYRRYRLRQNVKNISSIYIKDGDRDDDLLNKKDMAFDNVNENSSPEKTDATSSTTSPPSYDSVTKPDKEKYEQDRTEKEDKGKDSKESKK

hNav1.7 [2] = biological target: T1, hNav1.7; assay: Tritiated compound binding to membranes from cells expressing hNav1.7 and the β1 subunit, modified protocol (LBA, Ex. 243B); conditions: 300 pM [3H]compound, room temperature, read-out: Nav1.7 LBA (Ex. 243B) IC50
Target sequence in this assay (Q15858 whole entry, looked up): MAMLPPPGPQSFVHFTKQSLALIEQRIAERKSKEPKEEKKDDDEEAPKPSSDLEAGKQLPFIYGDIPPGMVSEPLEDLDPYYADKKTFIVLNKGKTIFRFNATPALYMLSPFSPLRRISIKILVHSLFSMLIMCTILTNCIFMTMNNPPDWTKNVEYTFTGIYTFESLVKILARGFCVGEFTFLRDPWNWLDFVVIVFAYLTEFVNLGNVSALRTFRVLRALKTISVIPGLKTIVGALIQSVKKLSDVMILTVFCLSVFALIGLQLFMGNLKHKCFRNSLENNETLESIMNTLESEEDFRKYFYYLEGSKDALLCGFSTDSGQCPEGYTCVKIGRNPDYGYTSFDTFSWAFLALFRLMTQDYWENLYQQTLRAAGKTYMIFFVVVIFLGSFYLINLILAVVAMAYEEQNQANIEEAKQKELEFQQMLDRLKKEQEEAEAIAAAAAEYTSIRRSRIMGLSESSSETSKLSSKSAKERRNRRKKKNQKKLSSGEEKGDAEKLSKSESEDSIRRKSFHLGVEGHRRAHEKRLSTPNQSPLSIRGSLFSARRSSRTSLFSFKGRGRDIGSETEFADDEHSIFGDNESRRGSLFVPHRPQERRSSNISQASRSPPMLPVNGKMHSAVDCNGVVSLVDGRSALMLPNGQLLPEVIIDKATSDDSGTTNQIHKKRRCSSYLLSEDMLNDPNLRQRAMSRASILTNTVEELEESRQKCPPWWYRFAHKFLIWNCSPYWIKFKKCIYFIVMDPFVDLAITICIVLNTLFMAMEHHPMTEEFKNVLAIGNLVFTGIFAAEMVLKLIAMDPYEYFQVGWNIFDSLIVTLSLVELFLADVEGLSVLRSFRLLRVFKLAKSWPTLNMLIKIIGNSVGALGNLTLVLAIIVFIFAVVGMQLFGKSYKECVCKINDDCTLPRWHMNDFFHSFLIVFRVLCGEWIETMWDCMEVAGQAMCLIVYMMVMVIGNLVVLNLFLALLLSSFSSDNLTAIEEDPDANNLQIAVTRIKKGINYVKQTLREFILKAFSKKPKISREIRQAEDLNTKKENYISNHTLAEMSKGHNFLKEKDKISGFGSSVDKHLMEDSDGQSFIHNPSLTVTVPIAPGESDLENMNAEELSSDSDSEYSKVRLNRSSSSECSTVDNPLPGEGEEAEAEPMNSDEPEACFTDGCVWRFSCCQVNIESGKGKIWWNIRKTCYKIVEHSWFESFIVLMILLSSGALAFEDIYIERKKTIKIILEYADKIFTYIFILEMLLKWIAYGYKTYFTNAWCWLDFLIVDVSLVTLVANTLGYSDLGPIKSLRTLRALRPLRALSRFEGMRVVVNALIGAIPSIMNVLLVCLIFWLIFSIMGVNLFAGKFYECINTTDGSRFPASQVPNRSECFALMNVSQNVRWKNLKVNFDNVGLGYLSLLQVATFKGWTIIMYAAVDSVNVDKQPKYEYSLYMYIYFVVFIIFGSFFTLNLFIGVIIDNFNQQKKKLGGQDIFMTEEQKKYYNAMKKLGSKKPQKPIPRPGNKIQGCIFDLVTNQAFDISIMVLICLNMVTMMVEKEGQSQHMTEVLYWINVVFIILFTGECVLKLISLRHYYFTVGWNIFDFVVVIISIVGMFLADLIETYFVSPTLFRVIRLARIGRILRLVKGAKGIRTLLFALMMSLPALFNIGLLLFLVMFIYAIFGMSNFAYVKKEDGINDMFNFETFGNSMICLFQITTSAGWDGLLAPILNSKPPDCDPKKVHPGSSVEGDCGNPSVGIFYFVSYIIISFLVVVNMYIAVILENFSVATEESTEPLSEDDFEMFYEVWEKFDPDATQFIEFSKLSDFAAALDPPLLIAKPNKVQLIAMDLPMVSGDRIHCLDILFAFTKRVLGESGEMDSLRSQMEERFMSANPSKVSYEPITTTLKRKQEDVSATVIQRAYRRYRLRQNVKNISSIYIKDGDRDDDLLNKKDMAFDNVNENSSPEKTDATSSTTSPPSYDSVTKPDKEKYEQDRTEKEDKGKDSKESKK
Target sequence in this assay (Q07699 whole entry partner, looked up): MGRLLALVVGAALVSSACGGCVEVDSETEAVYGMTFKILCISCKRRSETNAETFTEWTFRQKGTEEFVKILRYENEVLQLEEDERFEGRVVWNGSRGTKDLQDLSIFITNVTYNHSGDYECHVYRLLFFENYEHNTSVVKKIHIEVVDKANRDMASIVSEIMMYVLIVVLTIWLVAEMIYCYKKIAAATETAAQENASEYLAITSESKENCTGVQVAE

Row | Molecule | IC50 (hNav1.7 [1]) | IC50 (hNav1.7 [2])
1 | CC(C)C(=O)N1CC(N(C)[C@H]2CCCC[C@@H]2Nc2cc(F)c(S(=O)(=O)Nc3nccs3)cc2Cl)C1 [Example 146, 5-Chloro-2-fluoro-4-(((1S,2S)-2-((1-isobutyrylazetidin-3-yl)(methyl)amino)cyclohexyl)amino)-N-(thiazol-2-yl)benzenesulfonamide] | 15.4 nM | 154 nM
2 | CN(C)[C@H]1C[C@@H](c2cccc(OC(F)(F)F)c2)CC[C@@H]1Nc1cc(F)c(S(=O)(=O)Nc2ccncn2)cc1Cl [Example 225, 5-Chloro-4-(((1S,2S,4S)-2-(dimethylamino)-4-(3-(trifluoromethoxy)phenyl)cyclohexyl)amino)-2-fluoro-N-(pyrimidin-4-yl)benzenesulfonamide] | 0.651 nM | 0.643 nM
3 | CN(C)[C@H]1CC2C(C[C@@H]1Nc1cc(F)c(S(=O)(=O)Nc3nccs3)cc1Cl)C2(F)F (stereo in doubt) [Example 209, 5-Chloro-4-(((1R,3S,4S,6S)-4-(dimethylamino)-7,7-difluorobicyclo[4.1.0]heptan-3-yl)amino)-2-fluoro-N-(thiazol-2-yl)benzenesulfonamide] | 9.25 nM | 160 nM
4 | CN(C)[C@H]1CCCCC[C@@H]1Nc1cc(F)c(S(=O)(=O)Nc2nccs2)cc1Cl [Example 144, 5-chloro-4-(((1S,2S)-2-(dimethylamino)cycloheptyl)amino)-2-fluoro-N-(thiazol-2-yl)benzenesulfonamide formate] | 25.8 nM | 374 nM
5 | CN(C)[C@H]1CC(F)(F)CC[C@@H]1Nc1cc(F)c(S(=O)(=O)Nc2nccs2)cc1Cl [Example 187, 5-chloro-4-(((1S,2S)-2-(dimethylamino)-4,4-difluorocyclohexyl)amino)-2-fluoro-N-(thiazol-2-yl)benzenesulfonamide formate] | 7.65 nM | 776 nM
6 | CN1CC(C(=O)N(C)[C@H]2CCCC[C@@H]2Nc2cc(F)c(S(=O)(=O)Nc3nccs3)cc2Cl)C1 [Example 179, N-((1S,2S)-2-((2-Chloro-5-fluoro-4-(N-(thiazol-2-yl)sulfamoyl)phenyl)amino)cyclohexyl)-N,1-dimethylazetidine-3-carboxamide] | 6.83 nM | 270 nM
7 | CN(C)[C@H]1C[C@H]2C[C@H]2C[C@@H]1Nc1cc(F)c(S(=O)(=O)Nc2nccs2)cc1Cl [Example 214, 5-Chloro-4-(((1S,3S,4S,6R)-4-(dimethylamino)bicyclo[4.1.0]heptan-3-yl)amino)-2-fluoro-N-(thiazol-2-yl)benzenesulfonamide] | 2.09 nM | 53.1 nM
8 | CN(C)[C@H]1CCC(c2ccccc2F)C[C@@H]1Nc1cc(F)c(S(=O)(=O)Nc2nccs2)cc1Cl (stereo in doubt) [Example 173, 5-chloro-4-(((1S,2S,5R)-2-(dimethylamino)-5-(2-fluorophenyl)cyclohexyl)amino)-2-fluoro-N-(thiazol-2-yl)benzenesulfonamide] | 2.6 nM | 17.7 nM
9 | CN1CC[C@H]1C(=O)N(C)[C@H]1CCCC[C@@H]1Nc1cc(F)c(S(=O)(=O)Nc2nccs2)cc1Cl [Example 202, (S)—N-((1S,2S)-2-((2-chloro-5-fluoro-4-(N-(thiazol-2-yl)sulfamoyl)phenyl)amino)cyclohexyl)-N,1-dimethylazetidine-2-carboxamide] | 34.4 nM | 245 nM
10 | CN(C)[C@H]1C[C@@H](c2cccc(C(F)(F)F)c2)CC[C@@H]1Oc1cc(F)c(S(=O)(=O)Nc2ccncn2)cc1Cl [Example 238, 5-chloro-4-(((1S,2S,4S)-2-(dimethylamino)-4-(3-(trifluoromethyl)phenyl)cyclohexyl)oxy)-2-fluoro-N-(pyrimidin-4-yl)benzenesulfonamide] | 1.17 nM | 5.54 nM
11 | CN(C)CC(=O)N(C)[C@H]1CCCC[C@@H]1Nc1cc(F)c(S(=O)(=O)Nc2nccs2)cc1Cl [Example 167, N-((1S,2S)-2-((2-chloro-5-fluoro-4-(N-(thiazol-2-yl)sulfamoyl)phenyl)amino)cyclohexyl)-2-(dimethylamino)-N-methylacetamide] | 18.7 nM | 91.7 nM
12 | CN(C)[C@H]1C[C@@H](c2ccccc2)CC[C@@H]1Nc1cc(F)c(S(=O)(=O)Nc2ccncn2)cc1Cl [Example 232, 5-chloro-4-(((1S,2S,4S)-2-(dimethyamino)-4-phenylcyclohexyl)amino)-2-fluoro-N-(pyrimidin-4-yl)benzenesulfonamide formate] | 10.5 nM | 47.8 nM
13 | O=S(=O)(Nc1nccs1)c1cc(Cl)c(N[C@H]2CCCC[C@@H]2N2CCC[C@@](F)(CO)C2)cc1F [Example 213, 5-Chloro-2-fluoro-4-(((1S,2S)-2-((S)-3-fluoro-3-(hydroxymethyl)piperidin-1-yl)cyclohexyl)amino)-N-(thiazol-2-yl)benzenesulfonamide] | 13.9 nM | 218 nM
14 | CN(C1CN(C(=O)C2CC2)C1)[C@H]1CCCC[C@@H]1Nc1cc(F)c(S(=O)(=O)Nc2nccs2)cc1Cl [Example 155, 5-Chloro-4-(((1S,2S)-2-((1-(cyclopropanecarbonyl)azetidin-3-yl)(methyl)amino)-cyclohexyl)amino)-2-fluoro-N-(thiazol-2-yl)benzenesulfonamide] | 12.3 nM | 130 nM
15 | O=S(=O)(Nc1nccs1)c1cc(Cl)c(N[C@H]2CCCC[C@@H]2N2CCC3(CC2)CC3)cc1F [Example 154, 4-(((1S,2S)-2-(6-Azaspiro[2.5]octan-6-yl)cyclohexyl)amino)-5-chloro-2-fluoro-N-(thiazol-2-yl)benzenesulfonamide formate] | 101 nM | 1200 nM
16 | O=S(=O)(Nc1cccc(F)n1)c1cc(Cl)c(N[C@H]2CCCC[C@@H]2N2C[C@@H]3[C@@H](CO)[C@@H]3C2)cc1F [Example 185] | 36.2 nM | 771 nM
17 | CN(C)[C@@H]1C[C@H]2[C@@H](C[C@H]1Nc1cc(F)c(S(=O)(=O)Nc3nccs3)cc1Cl)C2(Cl)Cl [Example 197, 5-Chloro-4-(((1R,3R,4R,6S)-7,7-dichloro-4-(dimethylamino)bicyclo[4.1.0]heptan-3-yl)amino)-2-fluoro-N-(thiazol-2-yl)benzenesulfonamide formate] | 3.85 nM | 38 nM
18 | N#CC1CCN([C@H]2CCCC[C@@H]2Nc2cc(F)c(S(=O)(=O)Nc3nccs3)cc2Cl)CC1 [Example 149, 5-Chloro-4-(((1S,2S)-2-(4-cyanopiperidin-1-yl)cyclohexyl)amino)-2-fluoro-N-(thiazol-2-yl)benzenesulfonamide formate] | 12.5 nM | 520 nM
19 | CN(CCCO)[C@H]1CCCC[C@@H]1Nc1cc(F)c(S(=O)(=O)Nc2cccc(F)n2)cc1Cl [Example 122, 5-chloro-2-fluoro-N-(6-fluoropyridin-2-yl)-4-(((1S,2S)-2-((3-hydroxypropyl)(methyl)amino)cyclohexyl)amino)benzenesulfonamide] | 33.6 nM | 205 nM
20 | N#C[C@@H]1CCCN([C@H]2CCCC[C@@H]2Nc2cc(F)c(S(=O)(=O)Nc3nccs3)cc2Cl)C1 [Example 176, 5-Chloro-4-(((1S,2S)-2-((R)-3-cyanopiperidin-1-yl)cyclohexyl)amino)-2-fluoro-N-(thiazol-2-yl)benzenesulfonamide] | 8.72 nM | 491 nM
21 | 5-chloro-4-(((1S,2S,4S)-4-(3,5-dichlorophenyl)-2-(dimethylamino)cyclohexyl)amino)-2-fluoro-N-(pyrimidin-4-yl)benzenesulfonamide formate [Example 239] | 1.5 nM | 2.93 nM
22 | CN1CCC[C@H]1C(=O)N(C)[C@H]1CCCC[C@@H]1Nc1cc(F)c(S(=O)(=O)Nc2nccs2)cc1Cl [Example 201, (S)—N-((1S,2S)-2-((2-chloro-5-fluoro-4-(N-(thiazol-2-yl)sulfamoyl)phenyl)amino)cyclohexyl)-N,1-dimethylpyrrolidine-2-carboxamide] | 29.6 nM | 308 nM
23 | O=S(=O)(Nc1ccncn1)c1cc(Cl)c(N[C@@H]2CCCC[C@H]2N2CC3C(C2)C3(F)F)cc1F (stereo partly drawn) [Example 182, 5-chloro-4-(((1R,2R)-2-(6,6-difluoro-3-azabicyclo[3.1.0]hexan-3-yl)cyclohexyl)amino)-2-fluoro-N-(pyrimidin-4-yl)benzenesulfonamide] | 1520 nM | 2000 nM
24 | CN(C)[C@@H]1CN(c2cccc(C(F)(F)F)c2)CC[C@H]1Nc1cc(F)c(S(=O)(=O)Nc2ccncn2)cc1Cl [Example 234, 5-Chloro-4-(((3R,4R)-3-(dimethylamino)-1-(3-(trifluoromethyl)phenyl)piperidin-4-yl)amino)-2-fluoro-N-(pyrimidin-4-yl)benzenesulfonamide formate] | 131 nM | 2000 nM
25 | 5-Chloro-4-(((1S,2S)-2-(cyclobutyl(methyl)amino)cyclohexyl)amino)-2-fluoro-N-(thiazol-2-yl)benzenesulfonamide formate [Example 115] | 3.29 nM | 18 nM
